Molecules are shown by their SMILES.

The assay concerns BV-2. In words: Ant-inflammatory LPS-induced mouse BV2 cells assessed as reduction in NO production after 24 hrs by Griess reagent based assay. The conditions noted are these: BV-2, 24 h. The assay is classed as functional, cell-based.
For the compound `COC1=C2[C@H]3Cc4ccc(OC)c(O)c4[C@]2(CCN3C=O)C[C@H](O)[C@@H]1O`, the IC50 – broadly, the concentration at which inhibition is half-maximal – stood at 37.3 µM.
The same measure for `COC1=C2[C@H]3Cc4ccc(OC)c(O)c4[C@]2(CCN3C=O)C[C@H](O)[C@@H]1OC(C)=O`: above 100 µM; for `COc1cc2c3c(c1OC)C1(C=CC(=O)C=C1)C[C@H]3N(C=O)CC2`: above 100 µM.
`COc1ccc2cc1Oc1ccc(cc1)C[C@H]1c3c(cc4c(c3Oc3cc5c(cc3OC)CCN(C=O)[C@@H]5C2)OCO4)CCN1C`: the IC50 is 12 µM.
`O=CN1CCc2cc3c(c4c2[C@H]1Cc1cc(O)ccc1-4)OCO3`: the IC50 is above 100 µM.
In the case of `COC1=C2[C@H]3Cc4ccc(OC)c(O)c4[C@]2(CCN3C=O)C[C@H](OC(C)=O)[C@@H]1O`, the half-inhibitory concentration (IC50) was above 100 µM.
To `COC1=C2[C@H]3Cc4ccc(OC)c(O)c4[C@]2(CCN3C=O)C[C@H](OC(C)=O)[C@@H]1OC(C)=O` belongs above 100 µM; to `COc1ccc2cc1Oc1ccc(cc1)C[C@H]1c3cc(c(OC)cc3CCN1C=O)Oc1c(OC)c(OC)cc3c1[C@@H](C2)N(C)CC3`, 12.6 µM.
To `CN(C)c1ccc(O)c2c1C[C@H]1C[C@H]3[C@H](N(C)C)C(O)=C(C(N)=O)C(=O)[C@@]3(O)C(O)=C1C2=O` [MINOCYCLINE] belongs 17.5 µM.

The values above are taken from ChEMBL document CHEMBL4616630, “Amide-Iminoate Isomerism in Antineuroinflammatory Isoquinoline Alkaloids from Stephania cepharantha” (J Nat Prod, 2020).
